From US9822373B2, “Mutant cells for protein secretion and lignocellulose degradation” (The Regents of the University of California, priority 2011, dated 2017) come the findings set out here.

Experiment [1] has as its system Neurospora crassa. Briefly: Avicel hydrolysis assay with shake flask culture supernatants. In kind it is cell-based. Here is the method:
Cultures were grown in 1% sucrose for 24 hours followed by the addition of 2% sucrose or 0.2% cellobiose. Supernatant was harvested after 24 (WT, Δ3βG and Δ3βGΔcre) or 72 hours (Δ3βG). The WT Avicel® culture was grown for 5 days on 2% Avicel®, Δ3βG was grown in 1% sucrose for 24 hours followed by 48 hours in 1% Avicel® and Δ3βGΔcre was grown in 1% sucrose for 24 hours followed by 24 hours in 1% Avicel®.
Total Avicelase activity was conducted in 250 mL media bottles incubated at 50° C. on a orbital shaker at 200 rpm. Each bottle contained 1% cellulose (Avicel®) and 50 mM (pH 5.0) sodium acetate in a working volume of 50 mL. Tetracycline (10 μg/mL) was added to prevent microbial contamination. Bioreactor culture broth samples were buffer exchanged using a 10 kDa MWCO centrifugal filter to remove any soluble sugars prior to initiating hydrolysis experiments. After pre-incubating the hydrolysis mixture to 50° C., enzyme was added (1 mL filtered culture broth). Samples were taken every 4 hours for the first 12 hours and then every 12 hours thereafter for a total of 48 hours. Hydrolysis experiments were performed in triplicate.
Sucrose, fructose, glucose and cellobiose were measured on a DIONEX ICS-3000 HPLC (Dionex Corp., Sunnyvale, Calif.) using a CarboPac PA20 Analytical Column (3×150 mm) and a CarboPac PA20 guard column (3×30 mm) at 30° C. Following injection of 25 μl of diluted samples, elution was performed with 100 mM KOH (isocratic) at 0.4 ml/min. Sugars were detected using PAD, Four-Potential Carbohydrate Waveform and Peaks were analyzed using the Chromeleon software package.

Experiment [2] concerns Neurospora crassa. Briefly: Bioreactor cellulase production, total secreted protein in supernatant. In kind it is cell-based. As to conditions: pre-grown 24 hours on 1% sucrose, induction with 0.2%. Here is the method: Cellulase production was carried out in a 3.7 L bioreactor (BioEngineering AG) at an operating volume of 1 L. The bioreactor was equipped with one 48 mm Rushton impeller and four equally spaced baffles to provide adequate mixing. Impeller speed was controlled at 200 rpm for 8 hours to allow spore germination followed by 500 rpm for the remainder of the experiment. The temperature was maintained at 25° C., and medium pH was controlled at 5.5 using 40% phosphoric acid and 1:5 diluted ammonium hydroxide. The dissolved oxygen was maintained at a level greater than 20% of the saturation value of the medium by varying the aeration rate between 0.5 and 3 VVM in response to the dissolved oxygen tension. Minimal growth medium with 1% w/v sucrose as the sole carbon source (unless otherwise noted) was inoculated with 10^9 conidia. After 24 hours initial growth, cellulase production was induced with either cellobiose or Avicel® added to a final concentration of 0.2% w/v. Supernatant samples were collected at timepoint 0, 12 hours before induction, at induction, as well as 4, 8, 12, 24 and 36 hours post induction. Samples were spun at 4000 rpm for 5 minutes to pellet biomass and the supernatant was filtered through a 0.2 μm PES filter before being stored at −20° C. until all samples were collected.
Total secreted proteins were measured using the Bio-Rad Protein Assay kit (Bio-Rad) and visualized by running 15 μl of unconcentrated supernatant on a Criterion 4-14% Tris-HCL polyacrylamide gel and stained with Thermo Scientific GelCode Blue Stain Reagent.

Experiment [3] deals with Neurospora crassa. The experiment in a line: Secreted protein concentration in shake flask culture supernatant. In kind it is cell-based. The conditions noted are these: Δcre-1; time not stated. As to the method:
Strains were inoculated at an OD595 equal to 0.05 in 100 ml Vogel's salts with 1% (wt/vol) sucrose in a 250 ml Erlenmeyer flask and grown under constant light at 200 rpm for 24 hours. Cultures were then induced with 2% sucrose, 2% cellobiose, 1% sucrose/1% cellobiose, or 1% sucrose/1% Avicel®. Cultures continued to grow under constant light at 200 rpm for 5 days with supernatant collected at 1, 2, 3, 4 and 5 day. The collected supernatant was filtered through a 0.2 μm PES filter to remove biomass before being stored at −20° C. until all samples were collected. To visualize the secreted proteins, 15 μl of unconcentrated supernatant was run on a Criterion 10% Tris-HCL polyacrylamide gel and stained with Thermo Scientific GelCode Blue Stain Reagent.

Experiment [4] relates to cbh-1. Briefly: mRNA sequencing (RNA-Seq), transcript abundance of cbh-1. In kind it is cell-based, Neurospora crassa. The conditions noted are these: Δ3βG; 4 hours after transfer to 0.2% cellobiose. Here is the method:
Conidia from strains were inoculated at an OD595 equal to 0.05 in 50 ml Vogel's salts (45) with 2% w/v sucrose in a 250 ml Erlenmeyer flask and grown under constant light at 200 rpm for 16 hours. Biomass was then spun at 4200 rpm for 10 minutes and washed in Vogel's salts twice to remove any excess sucrose. Biomass was then added to a new flask containing 50 ml Vogel's salts supplemented with 1% w/v sucrose, 0.2% w/v cellobiose (Sigma) or 1% w/v Avicel® PH 101 (Sigma). Cultures were induced for 4 hrs under constant light at 200 rpm. The culture biomass was then harvested by filtration over a Whatman glass microfiber filter (GF/F) on a Buchner funnel and washed with 50 ml Vogel's salts. The biomass was flash frozen in liquid nitrogen and stored at −80° C. Three independent biological duplicates (flasks) were evaluated for each time point.
Total RNA from frozen samples was isolated using Zirconia/Silica beads (0.5 mm diameter; Biospec) and a Mini-Beadbeater-96 (Biospec) with 1 mL TRIzol reagent (Invitrogen) according to the manufacturer's instructions. […]
mRNA sequencing was performed using an Illumina kit (RS-100-0801) with isolated RNA. The final cDNA library was quantified by an Agilent bioanalyzer 2000 and sequenced using an Illumina Genome Analyzer-II using standard Illumina operating procedures. […]

Regarding `O=C[C@H](O)[C@@H](O)[C@H](O[C@@H]1O[C@H](CO)[C@@H](O)[C@H](O)[C@H]1O)[C@H](O)CO` [cellobiose], the “hydrolysis of crystalline cellulose by culture supernatant” value in experiment [1] (WT cultures grown on or induced with the substance) is recorded as “did not”; in experiment [1] (Δ3βG cultures grown on or induced with the substance), “hydrolyzed crystalline cellulose”; in experiment [1] (Δ3βGΔcre cultures grown on or induced with the substance), “hydrolyzed crystalline cellulose”. Moreover, the “protein in the supernatant” value in experiment [2] (WT) turned out to be 0.05 mg/mL; in experiment [2] (Δ3βG) it was 0.12 mg/mL; in experiment [2] (Δ3βGΔcre), 0.24 mg/mL. In experiment [3], the “cellulase secretion (secreted protein)” value came to 653 µg/mL. Also, in experiment [4], the “FPKM for cbh-1” value is given as 130,865 FPKM.
